Data taken from the supplement of paper PMC7214452.

How the values were obtained:
Test in all cases: normalized area under the dose-response curve (viability relative to DMSO control) (fraction); higher = less sensitive (more viable cells)
Settings in all cases: exposure time not given
LP1 (cancer type: MM) = system: LP1 (cancer type: MM)
Experimental: (§1)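 25 myeloma and 15 non-Hodgkin lymphoma cell lines were exposed to each of 76 drugs as 7-point log dilutions (0.01 nM–10 µM) in duplicate. Viability was read with CellTiter-Glo and normalised to DMSO (0.1%) and staurosporine (10 µM) plate controls. Normalised AUC was calculated by the trapezoidal method relative to the negative control.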

[1] = system: OCI-MY5/Vec (cancer type: MM)
Experimental: as §1

XG2 (cancer type: MM) = system: XG2 (cancer type: MM)
Experimental: as §1

KMS26 (cancer type: MM) = system: KMS26 (cancer type: MM)
Experimental: as §1

[2] = system: JeKo-1 (cancer type: Mantle)
Experimental: as §1

[3] = system: NCI-H929 (cancer type: MM)
Experimental: as §1

KMS18 (cancer type: MM) = system: KMS18 (cancer type: MM)
Experimental: as §1

[4] = system: OCI-LY1 (cancer type: DLBCL)
Experimental: as §1

[5] = system: SU-DHL1 (cancer type: TCL)
Experimental: as §1

[6] = system: Karpas-299 (cancer type: TCL)
Experimental: as §1

[7] = system: SU-DHL6 (cancer type: DLBCL)
Experimental: as §1

My-La (cancer type: TCL) = system: My-La (cancer type: TCL)
Experimental: as §1

[8] = system: OCI-LY3 (cancer type: DLBCL)
Experimental: as §1

MM1.R (cancer type: MM) = system: MM1.R (cancer type: MM)
Experimental: as §1

L363 (cancer type: MM) = system: L363 (cancer type: MM)
Experimental: as §1

[9] = system: RPMI 8226 (cancer type: MM)
Experimental: as §1

KMS11 (cancer type: MM) = system: KMS11 (cancer type: MM)
Experimental: as §1

JJN3 (cancer type: MM) = system: JJN3 (cancer type: MM)
Experimental: as §1

[10] = system: HuT 78 (cancer type: TCL)
Experimental: as §1

[11] = system: SU-DHL2 (cancer type: DLBCL)
Experimental: as §1

[12] = system: OCI-MY5/CRBN (cancer type: MM)
Experimental: as §1

KMS34 (cancer type: MM) = system: KMS34 (cancer type: MM)
Experimental: as §1

[13] = system: Mino (cancer type: Mantle)
Experimental: as §1

FR4 (cancer type: MM) = system: FR4 (cancer type: MM)
Experimental: as §1

[14] = system: KMS28PE (cancer type: MM)
Experimental: as §1

Se-Ax (cancer type: TCL) = system: Se-Ax (cancer type: TCL)
Experimental: as §1

OPM2 (cancer type: MM) = system: OPM2 (cancer type: MM)
Experimental: as §1

MM1.S (cancer type: MM) = system: MM1.S (cancer type: MM)
Experimental: as §1

[15] = system: OCI-MY7 (cancer type: MM)
Experimental: as §1

[16] = system: JVM2 (cancer type: Mantle)
Experimental: as §1

[17] = system: OCI-LY19 (cancer type: DLBCL)
Experimental: as §1

[18] = system: Granta-519 (cancer type: Mantle)
Experimental: as §1

AMO1 (cancer type: MM) = system: AMO1 (cancer type: MM)
Experimental: as §1

U266 (cancer type: MM) = system: U266 (cancer type: MM)
Experimental: as §1

[19] = system: SR-786 (cancer type: TCL)
Experimental: as §1

EJM (cancer type: MM) = system: EJM (cancer type: MM)
Experimental: as §1

[20] = system: KMS28BM (cancer type: MM)
Experimental: as §1

[21] = system: OCI-MY5 (cancer type: MM)
Experimental: as §1

SKMM2 (cancer type: MM) = system: SKMM2 (cancer type: MM)
Experimental: as §1

[22] = system: KMS12PE (cancer type: MM)
Experimental: as §1

| Compound | normalized area under the dose-response curve (LP1 (cancer type: MM)) | normalized area under the dose-response curve [1] | normalized area under the dose-response curve (XG2 (cancer type: MM)) | normalized area under the dose-response curve (KMS26 (cancer type: MM)) | normalized area under the dose-response curve [2] | normalized area under the dose-response curve [3] | normalized area under the dose-response curve (KMS18 (cancer type: MM)) | normalized area under the dose-response curve [4] | normalized area under the dose-response curve [5] | normalized area under the dose-response curve [6] | normalized area under the dose-response curve [7] | normalized area under the dose-response curve (My-La (cancer type: TCL)) | normalized area under the dose-response curve [8] | normalized area under the dose-response curve (MM1.R (cancer type: MM)) | normalized area under the dose-response curve (L363 (cancer type: MM)) | normalized area under the dose-response curve [9] | normalized area under the dose-response curve (KMS11 (cancer type: MM)) | normalized area under the dose-response curve (JJN3 (cancer type: MM)) | normalized area under the dose-response curve [10] | normalized area under the dose-response curve [11] | normalized area under the dose-response curve [12] | normalized area under the dose-response curve (KMS34 (cancer type: MM)) | normalized area under the dose-response curve [13] | normalized area under the dose-response curve (FR4 (cancer type: MM)) | normalized area under the dose-response curve [14] | normalized area under the dose-response curve (Se-Ax (cancer type: TCL)) | normalized area under the dose-response curve (OPM2 (cancer type: MM)) | normalized area under the dose-response curve (MM1.S (cancer type: MM)) | normalized area under the dose-response curve [15] | normalized area under the dose-response curve [16] | normalized area under the dose-response curve [17] | normalized area under the dose-response curve [18] | normalized area under the dose-response curve (AMO1 (cancer type: MM)) | normalized area under the dose-response curve (U266 (cancer type: MM)) | normalized area under the dose-response curve [19] | normalized area under the dose-response curve (EJM (cancer type: MM)) | normalized area under the dose-response curve [20] | normalized area under the dose-response curve [21] | normalized area under the dose-response curve (SKMM2 (cancer type: MM)) | normalized area under the dose-response curve [22] |
| --- | --- | --- | --- | --- | --- | --- | --- | --- | --- | --- | --- | --- | --- | --- | --- | --- | --- | --- | --- | --- | --- | --- | --- | --- | --- | --- | --- | --- | --- | --- | --- | --- | --- | --- | --- | --- | --- | --- | --- | --- |
| COc1cc(N2CCC(N3CCN(C)CC3)CC2)ccc1Nc1ncc(Cl)c(Nc2ccccc2P(C)(C)=O)n1 [Brigatinib] | 0.598 | 0.785 | 0.745 | 0.611 | 0.815 | 0.39 | 0.469 | 0.989 | 0.123 | 0.504 | 0.891 | 0.76 | 0.921 | 0.51 | 0.538 | 0.351 | 0.466 | 0.527 | 0.524 | 0.936 | 0.835 | 0.308 | 0.863 | 0.723 | 0.191 | 0.748 | 0.179 | 0.46 | 0.83 | 0.855 | 0.803 | 0.84 | 0.525 | 0.5 | 0.556 | 0.55 | 0.539 | 0.574 | 0.789 | 0.79 |
| CCN(CC)CCNC(=O)c1c(C)[nH]c(/C=C2\C(=O)Nc3ccc(F)cc32)c1C [Sunitinib] | 0.651 | 0.82 | 0.46 | 0.714 | 0.729 | 0.56 | 0.665 | 0.818 | 0.541 | 0.722 | 0.875 | 0.772 | 0.892 | 0.61 | 0.648 | 0.538 | 0.641 | 0.638 | 0.536 | 0.8 | 0.816 | 0.459 | 0.761 | 0.681 | 0.519 | 0.69 | 0.56 | 0.58 | 0.72 | 0.605 | 0.794 | 0.863 | 0.519 | 0.698 | 0.652 | 0.587 | 0.739 | 0.576 | 0.734 | 0.7 |
| CC(C)C[C@H](NC(=O)CNC(=O)c1cc(Cl)ccc1Cl)B(O)O [Ixazomib] | 0.344 | 0.027 | 0.0819 | 0.157 | 0.104 | 0.1 | – | 0.362 | 0.186 | 0.403 | 0.855 | 0.355 | 0.285 | 0.05 | – | – | – | – | 0.156 | 0.453 | 0.0319 | 0.306 | 0.14 | – | – | 0.146 | – | 0.09 | 0.12 | 0.114 | 0.303 | 0.129 | – | – | 0.355 | – | – | – | – | 0.45 |
| O=C1CC[C@H](N2Cc3c(OCc4ccc(CN5CCOCC5)cc4)cccc3C2=O)C(=O)N1 [Iberdomide] | – | 0.947 | – | – | – | 0.86 | – | 0.968 | 0.996 | – | 0.887 | – | 0.983 | 0.91 | – | – | – | – | 0.913 | 0.921 | 0.913 | – | – | – | – | 0.953 | – | 0.78 | 0.94 | 0.917 | 0.809 | – | – | – | – | – | – | – | – | 0.93 |
| Cc1[nH]c(/C=C2\C(=O)Nc3ccc(F)cc32)c(C)c1C(=O)NCCN1CCCC1 [Toceranib] | 0.796 | 0.967 | 0.723 | 0.906 | 0.831 | 0.88 | – | 1.06 | 0.561 | 0.757 | 0.894 | 0.993 | 0.902 | 0.83 | – | – | – | – | 0.756 | 0.959 | 0.884 | 0.667 | 0.898 | – | – | 0.728 | – | 0.82 | 0.86 | 0.702 | 0.894 | 0.898 | – | – | 0.818 | – | – | – | – | 0.79 |
| CC(=O)OC[C@H]1O[C@@H]([S-])[C@H](OC(C)=O)[C@@H](OC(C)=O)[C@@H]1OC(C)=O.CCP(CC)CC.[Au+] [Auranofin] | – | 0.0417 | – | – | – | 0.08 | – | 0.372 | 0.139 | – | 0.553 | – | 0.553 | 0.05 | – | – | – | – | 0.239 | 0.611 | 0.0579 | – | – | – | – | 0.247 | – | 0.09 | 0.07 | 0.157 | 0.344 | – | – | – | – | – | – | – | – | 0.33 |
